Test results from patent US11292770B2, “Pyridazinone herbicides” (FMC Corporation, priority 2017, dated 2022).

system: ducksalad (Heteranthera limosa); test: Test B flooded paddy test, ducksalad; type: in vivo; conditions: Flood, 250 g ai/ha; scale of 0 to 100
Description: (§1) Plant species in the flooded paddy test selected from rice (Oryza sativa), sedge, umbrella (small-flower umbrella sedge, Cyperus difformis), ducksalad (Heteranthera limosa), and barnyardgrass (Echinochloa crus-galli) were grown to the 2-leaf stage for testing. At the time of treatment, test pots were flooded to 3 cm above the soil surface, treated by application of test compounds directly to the paddy water, and then maintained at that water depth for the duration of the test. Treated plants and controls were maintained in a greenhouse for 13 to 15 d, after which time all species were compared to controls and visually evaluated. Plant response ratings, summarized in Table B, are based on a scale of 0 to 100 where 0 is no effect and 100 is complete control. A dash (—) response means no test result.

| Compound | Plant response rating, Ducksalad |
| --- | --- |
| CC(=O)Oc1c(Cl)nn(C)c(=O)c1-c1c2ccccc2cc2ccccc12 [Compound 6] | 85 |

system: Foxtail, Giant; test: Test A preemergence, foxtail, giant; type: in vivo; conditions: 31 g ai/ha, 0 to 100 scale

| Compound | Plant response rating, Foxtail, Giant |
| --- | --- |
| CC(=O)Oc1c(Cl)nn(C)c(=O)c1-c1c2ccccc2cc2ccccc12 [Compound 6] | 0 |

same assay, conditions: 125 g ai/ha, 0 to 100 scale

| Compound | Plant response rating, Foxtail, Giant |
| --- | --- |
| CC(=O)Oc1c(Cl)nn(C)c(=O)c1-c1c2ccccc2cc2ccccc12 [Compound 6] | 10 |

system: galium (catchweed bedstraw, Galium aparine); test: Test A postemergence, galium; type: in vivo; conditions: 31 g ai/ha, 0 to 100 scale
Source text: (§2) Seeds of plant species selected from barnyardgrass (Echinochloa crus-galli), kochia (Kochia scoparia), ragweed (common ragweed, Ambrosia elation), ryegrass, Italian (Italian ryegrass, Lolium multiflorum), foxtail, green (green foxtail, Setaria viridis), and pigweed (Amaranthus retroflexus) were planted into a blend of loam soil and sand and treated preemergence with a directed soil spray using test chemicals formulated in a non-phytotoxic solvent mixture which included a surfactant. At the same time, plants selected from these weed species and also wheat (Triticum aestivum), corn (Zea mays), blackgrass (Alopecurus myosuroides), and galium (catchweed bedstraw, Galium aparine) were planted in pots containing the same blend of loam soil and sand and treated with postemergence applications of test chemicals formulated in the same manner Plants ranged in height from 2 to 10 cm and were in the one- to two-leaf stage for the postemergence treatment. Treated plants and untreated controls were maintained in a greenhouse for approximately 10 d, after which time all treated plants were compared to untreated controls and visually evaluated for injury. Plant response ratings, summarized in Table A, are based on a 0 to 100 scale where 0 is no effect and 100 is complete control. A dash (—) response means no test result.

| Compound | Plant response rating, Galium |
| --- | --- |
| CC(=O)Oc1c(Cl)nn(C)c(=O)c1-c1c2ccccc2cc2ccccc12 [Compound 6] | 80 |

same assay, conditions: 125 g ai/ha, 0 to 100 scale

| Compound | Plant response rating, Galium |
| --- | --- |
| CC(=O)Oc1c(Cl)nn(C)c(=O)c1-c1c2ccccc2cc2ccccc12 [Compound 6] | 100 |

system: ryegrass, Italian (Italian ryegrass, Lolium multiflorum); test: Test A postemergence, ryegrass, Italian; type: in vivo; conditions: 31 g ai/ha, 0 to 100 scale
Source text: as §2

| Compound | Plant response rating, Ryegrass, Italian |
| --- | --- |
| CC(=O)Oc1c(Cl)nn(C)c(=O)c1-c1c2ccccc2cc2ccccc12 [Compound 6] | 20 |

same assay, conditions: 125 g ai/ha, 0 to 100 scale

| Compound | Plant response rating, Ryegrass, Italian |
| --- | --- |
| CC(=O)Oc1c(Cl)nn(C)c(=O)c1-c1c2ccccc2cc2ccccc12 [Compound 6] | 70 |

system: barnyardgrass (Echinochloa crus-galli); test: Test B flooded paddy test, barnyardgrass; type: in vivo; conditions: Flood, 250 g ai/ha; scale of 0 to 100, 0 no effect, 100 complete control
Description: as §1

| Compound | Plant response rating, Barnyardgrass |
| --- | --- |
| CC(=O)Oc1c(Cl)nn(C)c(=O)c1-c1c2ccccc2cc2ccccc12 [Compound 6] | 0 |

system: blackgrass (Alopecurus myosuroides); test: Test A postemergence, blackgrass; type: in vivo; conditions: 31 g ai/ha, 0 to 100 scale
Source text: as §2

| Compound | Plant response rating, Blackgrass |
| --- | --- |
| CC(=O)Oc1c(Cl)nn(C)c(=O)c1-c1c2ccccc2cc2ccccc12 [Compound 6] | 0 |

same assay, conditions: 125 g ai/ha, 0 to 100 scale

| Compound | Plant response rating, Blackgrass |
| --- | --- |
| CC(=O)Oc1c(Cl)nn(C)c(=O)c1-c1c2ccccc2cc2ccccc12 [Compound 6] | 0 |

system: pigweed (Amaranthus retroflexus); test: Test A preemergence, pigweed; type: in vivo; conditions: 31 g ai/ha, 0 to 100 scale
Source text: as §2

| Compound | Plant response rating, Pigweed |
| --- | --- |
| CC(=O)Oc1c(Cl)nn(C)c(=O)c1-c1c2ccccc2cc2ccccc12 [Compound 6] | 80 |

same assay, conditions: 125 g ai/ha, 0 to 100 scale

| Compound | Plant response rating, Pigweed |
| --- | --- |
| CC(=O)Oc1c(Cl)nn(C)c(=O)c1-c1c2ccccc2cc2ccccc12 [Compound 6] | 100 |

system: corn (Zea mays); test: Test A postemergence, corn; type: in vivo; conditions: 31 g ai/ha, 0 to 100 scale
Source text: as §2

| Compound | Plant response rating, Corn |
| --- | --- |
| CC(=O)Oc1c(Cl)nn(C)c(=O)c1-c1c2ccccc2cc2ccccc12 [Compound 6] | 0 |

same assay, conditions: 125 g ai/ha, 0 to 100 scale

| Compound | Plant response rating, Corn |
| --- | --- |
| CC(=O)Oc1c(Cl)nn(C)c(=O)c1-c1c2ccccc2cc2ccccc12 [Compound 6] | 0 |

system: ragweed (common ragweed, Ambrosia elation); test: Test A postemergence, ragweed; type: in vivo; conditions: 31 g ai/ha, 0 to 100 scale
Source text: as §2

| Compound | Plant response rating, Ragweed |
| --- | --- |
| CC(=O)Oc1c(Cl)nn(C)c(=O)c1-c1c2ccccc2cc2ccccc12 [Compound 6] | 90 |

same assay, conditions: 125 g ai/ha, 0 to 100 scale

| Compound | Plant response rating, Ragweed |
| --- | --- |
| CC(=O)Oc1c(Cl)nn(C)c(=O)c1-c1c2ccccc2cc2ccccc12 [Compound 6] | 90 |

system: sedge, umbrella (small-flower umbrella sedge, Cyperus difformis); test: Test B flooded paddy test, sedge, umbrella; type: in vivo; conditions: Flood, 250 g ai/ha; scale of 0 to 100
Description: as §1

| Compound | Plant response rating, Sedge, Umbrella |
| --- | --- |
| CC(=O)Oc1c(Cl)nn(C)c(=O)c1-c1c2ccccc2cc2ccccc12 [Compound 6] | 95 |

system: kochia (Kochia scoparia); test: Test A preemergence, kochia; type: in vivo; conditions: 31 g ai/ha, 0 to 100 scale
Source text: as §2

| Compound | Plant response rating, Kochia |
| --- | --- |
| CC(=O)Oc1c(Cl)nn(C)c(=O)c1-c1c2ccccc2cc2ccccc12 [Compound 6] | 0 |

same assay, conditions: 125 g ai/ha, 0 to 100 scale

| Compound | Plant response rating, Kochia |
| --- | --- |
| CC(=O)Oc1c(Cl)nn(C)c(=O)c1-c1c2ccccc2cc2ccccc12 [Compound 6] | 0 |

system: kochia (Kochia scoparia); test: Test A postemergence, kochia; type: in vivo; conditions: 31 g ai/ha, 0 to 100 scale
Source text: as §2

| Compound | Plant response rating, Kochia |
| --- | --- |
| CC(=O)Oc1c(Cl)nn(C)c(=O)c1-c1c2ccccc2cc2ccccc12 [Compound 6] | 0 |

same assay, conditions: 125 g ai/ha, 0 to 100 scale

| Compound | Plant response rating, Kochia |
| --- | --- |
| CC(=O)Oc1c(Cl)nn(C)c(=O)c1-c1c2ccccc2cc2ccccc12 [Compound 6] | 20 |

system: wheat (Triticum aestivum); test: Test A postemergence, wheat; type: in vivo; conditions: 31 g ai/ha, 0 to 100 scale
Source text: as §2

| Compound | Plant response rating, Wheat |
| --- | --- |
| CC(=O)Oc1c(Cl)nn(C)c(=O)c1-c1c2ccccc2cc2ccccc12 [Compound 6] | 10 |

same assay, conditions: 125 g ai/ha, 0 to 100 scale

| Compound | Plant response rating, Wheat |
| --- | --- |
| CC(=O)Oc1c(Cl)nn(C)c(=O)c1-c1c2ccccc2cc2ccccc12 [Compound 6] | 10 |

system: ryegrass, Italian (Italian ryegrass, Lolium multiflorum); test: Test A preemergence, ryegrass, Italian; type: in vivo; conditions: 31 g ai/ha, 0 to 100 scale
Source text: as §2

| Compound | Plant response rating, Ryegrass, Italian |
| --- | --- |
| CC(=O)Oc1c(Cl)nn(C)c(=O)c1-c1c2ccccc2cc2ccccc12 [Compound 6] | 30 |

same assay, conditions: 125 g ai/ha, 0 to 100 scale

| Compound | Plant response rating, Ryegrass, Italian |
| --- | --- |
| CC(=O)Oc1c(Cl)nn(C)c(=O)c1-c1c2ccccc2cc2ccccc12 [Compound 6] | 30 |

system: rice (Oryza sativa); test: Test B flooded paddy test, rice; type: in vivo; conditions: Flood, 250 g ai/ha; scale of 0 to 100
Description: as §1

| Compound | Plant response rating, Rice |
| --- | --- |
| CC(=O)Oc1c(Cl)nn(C)c(=O)c1-c1c2ccccc2cc2ccccc12 [Compound 6] | 0 |

system: Foxtail, Giant; test: Test A postemergence, foxtail, giant; type: in vivo; conditions: 31 g ai/ha, 0 to 100 scale

| Compound | Plant response rating, Foxtail, Giant |
| --- | --- |
| CC(=O)Oc1c(Cl)nn(C)c(=O)c1-c1c2ccccc2cc2ccccc12 [Compound 6] | 0 |

same assay, conditions: 125 g ai/ha, 0 to 100 scale

| Compound | Plant response rating, Foxtail, Giant |
| --- | --- |
| CC(=O)Oc1c(Cl)nn(C)c(=O)c1-c1c2ccccc2cc2ccccc12 [Compound 6] | 20 |

system: barnyardgrass (Echinochloa crus-galli); test: Test A postemergence, barnyardgrass; type: in vivo; conditions: 31 g ai/ha, 0 to 100 scale
Source text: as §2

| Compound | Plant response rating, Barnyardgrass |
| --- | --- |
| CC(=O)Oc1c(Cl)nn(C)c(=O)c1-c1c2ccccc2cc2ccccc12 [Compound 6] | 0 |

same assay, conditions: 125 g ai/ha, 0 to 100 scale, 0 no effect, 100 complete control

| Compound | Plant response rating, Barnyardgrass |
| --- | --- |
| CC(=O)Oc1c(Cl)nn(C)c(=O)c1-c1c2ccccc2cc2ccccc12 [Compound 6] | 10 |

system: ragweed (common ragweed, Ambrosia elation); test: Test A preemergence, ragweed; type: in vivo; conditions: 31 g ai/ha, 0 to 100 scale
Source text: as §2

| Compound | Plant response rating, Ragweed |
| --- | --- |
| CC(=O)Oc1c(Cl)nn(C)c(=O)c1-c1c2ccccc2cc2ccccc12 [Compound 6] | 40 |

same assay, conditions: 125 g ai/ha, 0 to 100 scale

| Compound | Plant response rating, Ragweed |
| --- | --- |
| CC(=O)Oc1c(Cl)nn(C)c(=O)c1-c1c2ccccc2cc2ccccc12 [Compound 6] | 100 |

system: barnyardgrass (Echinochloa crus-galli); test: Test A preemergence, barnyardgrass; type: in vivo; conditions: 31 g ai/ha, 0 to 100 scale
Source text: as §2

| Compound | Plant response rating, Barnyardgrass |
| --- | --- |
| CC(=O)Oc1c(Cl)nn(C)c(=O)c1-c1c2ccccc2cc2ccccc12 [Compound 6] | 0 |

same assay, conditions: 125 g ai/ha, 0 to 100 scale

| Compound | Plant response rating, Barnyardgrass |
| --- | --- |
| CC(=O)Oc1c(Cl)nn(C)c(=O)c1-c1c2ccccc2cc2ccccc12 [Compound 6] | 0 |

system: pigweed (Amaranthus retroflexus); test: Test A postemergence, pigweed; type: in vivo; conditions: 31 g ai/ha, 0 to 100 scale
Source text: as §2

| Compound | Plant response rating, Pigweed |
| --- | --- |
| CC(=O)Oc1c(Cl)nn(C)c(=O)c1-c1c2ccccc2cc2ccccc12 [Compound 6] | 100 |

same assay, conditions: 125 g ai/ha, 0 to 100 scale

| Compound | Plant response rating, Pigweed |
| --- | --- |
| CC(=O)Oc1c(Cl)nn(C)c(=O)c1-c1c2ccccc2cc2ccccc12 [Compound 6] | 100 |
